Source: publication PMC4303209, “A novel phosphatidylinositol 3-kinase (PI3K) inhibitor directs a potent FOXO-dependent, p53-independent cell cycle arrest phenotype characterized by the differential induction of a subset of FOXO-regulated genes” (Breast Cancer Research : BCR, 2014)

Test system: MCF-7 breast cancer cells
Assay: Microarray gene expression analysis (Agilent whole human genome 4 x 44K; compound vs DMSO, LIMMA log2 fold change)
Type: cell-based
Conditions: cell cycle genes

Compound: Oc1cccc(-c2nc(N3CCOCC3)c3oc4ncccc4c3n2)c1 [PI-103]
- TRIAP1 log2FC (Gene 51499): -0.86
- DTL log2FC (Gene 51514): -0.14
- SIRT7 log2FC (Gene 51547): 0.32
- CINP log2FC (Gene 51550): -0.05
- GINS2 log2FC (Gene 51659): -0.80
- NUP54 log2FC (Gene 53371): 0.41
- PELO log2FC (Gene 53918): -0.59
- WNT4 log2FC (Gene 54361): -0.42
- ANLN log2FC (Gene 54443): 0.75
- FBXW5 log2FC (Gene 54461): 0.13
- FAM64A log2FC (Gene 54478): 0.10
- DDX4 log2FC (Gene 54514): -0.13
- BTG4 log2FC (Gene 54766): 0.11
- NDE1 log2FC (Gene 54820): 0.40
- NSUN2 log2FC (Gene 54888): -0.48
- TTC19 log2FC (Gene 54902): 0.67
- TXNL4B log2FC (Gene 54957): 0.28
- BANP log2FC (Gene 54971): 0.16
- AURKAIP1 log2FC (Gene 54998): -0.22
- PHIP log2FC (Gene 55023): 1.07
- USP47 log2FC (Gene 55031): 0.61
- ZWILCH log2FC (Gene 55055): 0.41
- PIWIL2 log2FC (Gene 55124): 0.06
- CEP192 log2FC (Gene 55125): 0.35
- CDCA8 log2FC (Gene 55143): -0.04
- RFWD3 log2FC (Gene 55159): -0.62
- CEP55 log2FC (Gene 55165): 0.99
- CENPQ log2FC (Gene 55166): 0.81
- RIF1 log2FC (Gene 55183): 0.39
- ARL8B log2FC (Gene 55207): 0.45
- RCBTB1 log2FC (Gene 55213): 0.71
- CCDC87 log2FC (Gene 55231): 0.15
- STEAP3 log2FC (Gene 55240): -0.44
- MNS1 log2FC (Gene 55329): 0.91
- MCM10 log2FC (Gene 55388): -0.91
- SMPD3 log2FC (Gene 55512): -0.27
- TRIM36 log2FC (Gene 55521): 0.64
- RBM38 log2FC (Gene 55544): -0.58
- PRR5 log2FC (Gene 55615): 0.45
- PRPF40A log2FC (Gene 55660): 1.01
- CEP72 log2FC (Gene 55722): 0.31
- CHFR log2FC (Gene 55743): -0.11
- NUP133 log2FC (Gene 55746): 0.25
- CCAR1 log2FC (Gene 55749): 0.55
- CDK5RAP2 log2FC (Gene 55755): 0.51
- PCID2 log2FC (Gene 55795): 0.32
- CENPN log2FC (Gene 55839): 0.30
- PPP2R2D log2FC (Gene 55844): -0.17
- HDAC8 log2FC (Gene 55869): -0.36
- PBK log2FC (Gene 55872): 0.46
- BIN3 log2FC (Gene 55909): -0.80
- ERBB2IP log2FC (Gene 55914): 1.07
- RCC2 log2FC (Gene 55920): -0.27
- KLHL9 log2FC (Gene 55958): 0.04
- TEX11 log2FC (Gene 56159): 0.000672
- TDRD1 log2FC (Gene 56165): 0.04
- PARD3 log2FC (Gene 56288): 0.46
- RPRM log2FC (Gene 56475): -0.24
- CYP26B1 log2FC (Gene 56603): 0.03
- SPIRE1 log2FC (Gene 56907): 0.10
- SMARCAD1 log2FC (Gene 56916): 0.55
- PRDM9 log2FC (Gene 56979): 0.0757
- KIF15 log2FC (Gene 56992): 1.30
- PDXP log2FC (Gene 57026): -0.93
- PCBP4 log2FC (Gene 57060): -0.27
- CASC5 log2FC (Gene 57082): 0.12
- PCNP log2FC (Gene 57092): 0.60
- NUP107 log2FC (Gene 57122): 0.63
- CHMP1B log2FC (Gene 57132): 0.39
- PAK7 log2FC (Gene 57144): 0.45
- CSRP2BP log2FC (Gene 57325): 0.27
- TTYH1 log2FC (Gene 57348): -0.09
- BIRC6 log2FC (Gene 57448): 0.14
- MTA3 log2FC (Gene 57504): 0.33
- HACE1 log2FC (Gene 57531): 0.51
- TAOK1 log2FC (Gene 57551): 0.40
- USP37 log2FC (Gene 57695): 0.38
- FANCM log2FC (Gene 57697): 0.48
- CCNB1IP1 log2FC (Gene 57820): 0.84
- RHOU log2FC (Gene 58480): 1.56
- OVOL2 log2FC (Gene 58495): 0.16
- AVPI1 log2FC (Gene 60370): 0.53
- RINT1 log2FC (Gene 60561): 0.44
- FAM111A log2FC (Gene 63901): 0.33
- DMRTC2 log2FC (Gene 63946): -0.00414
- CLSPN log2FC (Gene 63967): -0.11
- TSPYL2 log2FC (Gene 64061): -0.12
- DPEP3 log2FC (Gene 64180): 0.19
- RFWD2 log2FC (Gene 64326): -0.06
- CENPH log2FC (Gene 64946): 0.38
- MRPL41 log2FC (Gene 64975): -0.47
- INTS3 log2FC (Gene 65123): -0.18
- PHACTR4 log2FC (Gene 65979): 0.43
- BOLL log2FC (Gene 66037): -0.012
- MIS12 log2FC (Gene 79003): -0.76
- CENPM log2FC (Gene 79019): 0.04
- NUP37 log2FC (Gene 79023): 0.16
- ZNF655 log2FC (Gene 79027): 0.68
- CENPO log2FC (Gene 79172): -0.71
- E2F8 log2FC (Gene 79733): 0.23
- FBXO31 log2FC (Gene 79791): -0.10
- CSPP1 log2FC (Gene 79848): 0.57
- NEK11 log2FC (Gene 79858): 0.47
- MAP9 log2FC (Gene 79884): 1.08
- NUP85 log2FC (Gene 79902): 0.18
- CEP76 log2FC (Gene 79959): 0.32
- CENPT log2FC (Gene 80152): 0.00794
- DBF4B log2FC (Gene 80174): -0.40
- CEP290 log2FC (Gene 80184): 0.83
- CEP63 log2FC (Gene 80254): 0.71
- CDK5RAP3 log2FC (Gene 80279): 0.0271
- CEP70 log2FC (Gene 80321): 0.58
- TUBB1 log2FC (Gene 81027): -0.33
- NDEL1 log2FC (Gene 81565): -0.13
- FAM83D log2FC (Gene 81610): -0.15
- CAB39L log2FC (Gene 81617): 0.08
- CCNL2 log2FC (Gene 81669): -0.13
- CABLES2 log2FC (Gene 81928): -0.71
- KIF18A log2FC (Gene 81930): 1.18
- SESN2 log2FC (Gene 83667): -0.54
- SETDB2 log2FC (Gene 83852): 1.23
- GSG2 log2FC (Gene 83903): -0.50
- RASSF4 log2FC (Gene 83937): 0.14
- MND1 log2FC (Gene 84057): 0.59
- HORMAD1 log2FC (Gene 84072): 0.40
- USP44 log2FC (Gene 84101): 0.0155
- CEP78 log2FC (Gene 84131): 0.36
- GINS4 log2FC (Gene 84296): -0.47
- RAB11FIP4 log2FC (Gene 84440): 0.56
- LZTS2 log2FC (Gene 84445): 1.13
- BRSK1 log2FC (Gene 84446): 0.0146
- SPIRE2 log2FC (Gene 84501): 0.56
- PARD6B log2FC (Gene 84612): 0.88
- PPP1R9B log2FC (Gene 84687): -0.13
- SPATA22 log2FC (Gene 84690): 0.0637
- BEX2 log2FC (Gene 84707): 0.83
- PSRC1 log2FC (Gene 84722): 0.36
- KLHL22 log2FC (Gene 84861): 0.21
- TBRG1 log2FC (Gene 84897): 0.08
- MASTL log2FC (Gene 84930): 0.43
- LSM10 log2FC (Gene 84967): -1.02
- CCNB3 log2FC (Gene 85417): 0.31
- LRRCC1 log2FC (Gene 85444): 0.61
- DIXDC1 log2FC (Gene 85458): 0.018
- PNPT1 log2FC (Gene 87178): -0.10
- LMLN log2FC (Gene 89782): 0.82
- KLHL13 log2FC (Gene 90293): 0.07
- GADD45GIP1 log2FC (Gene 90480): -0.25
- SLFN11 log2FC (Gene 91607): -0.61
- CENPL log2FC (Gene 91687): -0.11
- CABLES1 log2FC (Gene 91768): 1.68
- SYCE1 log2FC (Gene 93426): -0.08
- ACTR8 log2FC (Gene 93973): 0.12
- TP53INP1 log2FC (Gene 94241): 0.89
- CDCA5 log2FC (Gene 113130): 0.0109
- TUBGCP5 log2FC (Gene 114791): 0.12
